According to ChEMBL document CHEMBL2029332, “Identification of binding specificity-determining features in protein families” (J Med Chem, 2012):

Legend:
[1] = molecular target: Cyclin-dependent kinase 2/cyclin E1 (Homo sapiens, UniProt P24941); experiment: Inhibition of human recombinant CDK2/CycE using HHASPRK as substrate by ESI-MS analysis; assay type: protein-complex assay
[2] = molecular target: T1, Tyrosine-protein kinase ZAP-70 (Homo sapiens, UniProt P43403); experiment: Inhibition of human recombinant ZAP70 using EEEEYEEEE as substrate by ESI-MS analysis
T1 sequence (P43403 whole entry): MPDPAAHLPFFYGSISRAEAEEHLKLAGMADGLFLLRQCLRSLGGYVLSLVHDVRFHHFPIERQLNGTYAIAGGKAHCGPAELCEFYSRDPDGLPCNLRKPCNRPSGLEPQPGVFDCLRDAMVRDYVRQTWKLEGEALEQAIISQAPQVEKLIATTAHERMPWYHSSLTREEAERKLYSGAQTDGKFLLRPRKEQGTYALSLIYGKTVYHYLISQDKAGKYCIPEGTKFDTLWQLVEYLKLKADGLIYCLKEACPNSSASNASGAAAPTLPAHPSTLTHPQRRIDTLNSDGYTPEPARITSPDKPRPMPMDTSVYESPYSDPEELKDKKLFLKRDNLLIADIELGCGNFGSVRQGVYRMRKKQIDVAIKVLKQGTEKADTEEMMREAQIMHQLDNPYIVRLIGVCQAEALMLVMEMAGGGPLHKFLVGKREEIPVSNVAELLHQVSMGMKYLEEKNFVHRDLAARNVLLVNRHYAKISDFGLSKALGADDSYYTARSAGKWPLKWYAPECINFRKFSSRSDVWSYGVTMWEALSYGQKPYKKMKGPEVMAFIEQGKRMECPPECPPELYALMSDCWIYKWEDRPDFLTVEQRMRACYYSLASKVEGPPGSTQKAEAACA

[3] = molecular target: Protein-tyrosine kinase 2-beta (Homo sapiens, UniProt Q14289); experiment: Inhibition of human recombinant PYK2 by ESI-MS analysis
Sequence of Protein-tyrosine kinase 2-beta (Q14289 whole entry): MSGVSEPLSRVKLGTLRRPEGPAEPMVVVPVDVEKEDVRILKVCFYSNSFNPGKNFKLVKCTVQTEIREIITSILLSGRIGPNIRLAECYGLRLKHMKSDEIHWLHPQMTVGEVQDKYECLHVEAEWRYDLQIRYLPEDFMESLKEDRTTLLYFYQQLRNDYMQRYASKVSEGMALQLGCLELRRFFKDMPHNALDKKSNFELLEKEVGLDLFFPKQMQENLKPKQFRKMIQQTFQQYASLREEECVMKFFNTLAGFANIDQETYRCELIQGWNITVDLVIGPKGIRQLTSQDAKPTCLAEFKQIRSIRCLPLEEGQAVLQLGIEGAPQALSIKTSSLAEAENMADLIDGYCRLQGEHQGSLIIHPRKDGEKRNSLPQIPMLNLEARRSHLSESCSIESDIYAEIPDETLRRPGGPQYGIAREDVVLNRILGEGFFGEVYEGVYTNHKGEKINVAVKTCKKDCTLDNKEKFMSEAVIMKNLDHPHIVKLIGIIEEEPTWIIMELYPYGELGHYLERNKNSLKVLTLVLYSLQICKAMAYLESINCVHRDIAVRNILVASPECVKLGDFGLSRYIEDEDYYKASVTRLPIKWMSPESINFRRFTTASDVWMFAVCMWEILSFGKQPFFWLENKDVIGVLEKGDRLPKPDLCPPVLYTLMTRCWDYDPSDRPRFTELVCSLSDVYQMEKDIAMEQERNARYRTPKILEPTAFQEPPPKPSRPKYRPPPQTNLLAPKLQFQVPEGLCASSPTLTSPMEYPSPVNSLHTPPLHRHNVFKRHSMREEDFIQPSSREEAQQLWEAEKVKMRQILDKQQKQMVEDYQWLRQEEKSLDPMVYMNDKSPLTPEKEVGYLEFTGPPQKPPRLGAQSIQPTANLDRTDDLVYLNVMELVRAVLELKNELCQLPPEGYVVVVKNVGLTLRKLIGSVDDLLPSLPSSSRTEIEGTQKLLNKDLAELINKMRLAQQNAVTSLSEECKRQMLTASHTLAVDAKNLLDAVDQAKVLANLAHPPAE

| Compound | Ki [1] | Ki [2] | Ki [3] |
| --- | --- | --- | --- |
| NS(=O)(=O)c1ccc(Nc2nc(OCC3CCCCC3)c3nc[nH]c3n2)cc1 |  | > 10000 nM | > 10000 nM |
| CCCCc1c(-c2ccc(OC)cc2)[nH]c2nccnc12 [ALOISINE] | 0.525 nM | 2630 nM | 933 nM |
| CN(C)c1ncnc2nc[nH]c12 [DIMETHYLADENINE] | 1100 nM | > 10000 nM | > 10000 nM |
| N#CC(C#N)=Cc1ccc(O)c(O)c1 [TYRPHOSTIN 23] | 617 nM |  |  |

Other lines, results leading:

| Ki [1] | Ki [2] | Ki [3] | Compound |
| --- | --- | --- | --- |
| 490 nM | > 10000 nM | 10.5 nM | Cc1[nH]c(/C=C2\C(=O)Nc3ccc(S(=O)(=O)N(C)c4cccc(Cl)c4)cc32)c(C)c1C(=O)N1CCN(C)CC1 |
|  | > 10000 nM | > 10000 nM | NS(=O)(=O)c1ccc(N/N=C2\C(=O)Nc3ccc(Br)cc32)cc1 |
| 372 nM | 1550 nM | > 10000 nM | O=C1C(C2=C3C(=Nc4ccccc43)/C(=C\c3ccc(O)cc3)C2=O)=C2C(=Nc3ccccc32)/C1=C\c1ccc(O)cc1 [SCYTONEMIN] |
